{"source": "patent US5643920A", "about": "“Tricyclic compound having anti-allergic activities” (Mochida Pharmaceutical Co., Ltd., priority 1992, dated 1997)"}
{"tested_on": "IgE antibody production", "assay": "Activity to inhibit the IgE antibody production in mice sensitized with egg albumin (ELISA of plasma IgE)", "type": "in vivo, male BALB/c mice", "settings": "Mus musculus, 240 h; 3 mg/kg/day, oral, once a day for seven times; blood ten days after sensitization; BALB/c mice; read-out: Percentage of the IgE antibody production inhibited", "method": "(§1) Groups of five male BALB/c mice (body weight: 20 to 25 g) each were sensitized by intraperitoneally injection with 4 mg of aluminum hydroxide to which absorbed 10 μg of egg albumin. The test compound is suspended in a gum arabic solution, and the suspensions of different concentrations were orally administered to the animals once a day for seven times in total from immediately after the sensitization. The gum arabic suspension having no test compound added was used for the control.\n(§2) Blood was collected from the animal ten days after the sensitization, and the collected blood was evaluated for the amount of the IgE antibody produced by ELISA. In brief, the plasma sample was added to immobilized anti-mouse igE antibody, and then, reacting with the anti-mouse IgE antibody having labeled with horseradish peroxidase. The amount of the IgE antibody produced was calculated by using the activity of the horseradish peroxidase for the index (See Meneki-to-Shikkan (Immune and Diseases), 15, 211-216, 1988).\n(§3) In Table 1, there are shown the amount of the test compounds administered and the percentage of the IgE antibody production inhibited calculated by equation 1: [formula]", "units": {"inhibition at 3 mg/kg": "%"}}
{"smiles": "Clc1ccc(-c2cn3cccc4c3c2CCC4)cc1", "note": "[Example 3, 1-(4-chlorophenyl) -8,9-dihydro-7H-pyrrolo-[3,2,1-ij]quinoline]", "inhibition at 3 mg/kg": 64}
{"smiles": "Fc1ccc(-c2cn3cccc4c3c2CCC4)cc1", "note": "[Example 99, 8,9-dihydro-1-(4-fluorophenyl)-7H-pyrrolo-[3,2,1-ij]quinoline]", "inhibition at 3 mg/kg": 43}
{"tested_on": "IgE antibody production", "assay": "Activity to inhibit the IgE antibody production in mice sensitized with egg albumin (ELISA of plasma IgE)", "type": "in vivo, male BALB/c mice", "settings": "Mus musculus, 240 h; 10 mg/kg/day, oral, once a day for seven times; blood ten days after sensitization; BALB/c mice; read-out: Percentage of the IgE antibody production inhibited", "method": "as §1, §2, §3", "units": {"inhibition at 10 mg/kg": "%"}}
{"smiles": "Cc1ccc(-c2cn3cccc4c3c2CCC4)cc1", "note": "[Example 109, 8,9-dihydro-1-(4-methylphenyl)-7H-pyrrolo-[3,2,1-ij]quinoline]", "inhibition at 10 mg/kg": 45}
{"smiles": "C=C1CCc2c(-c3ccc(Cl)cc3)cn3cccc1c23", "note": "[Example 9, 1-(4-chlorophenyl)-8,9-dihydro-7-methylene-7H-pyrrolo[3,2,1-ij]quinoline]", "inhibition at 10 mg/kg": 65}
{"smiles": "Brc1ccc(-c2cn3cccc4c3c2CCC4)cc1", "note": "[Example 100, 1-(4-bromophenyl)-8,9-dihydro-7H-pyrrolo-[3,2,1-ij]quinoline]", "inhibition at 10 mg/kg": 77}
{"smiles": "NC1CCc2c(-c3ccc(Cl)cc3)cn3cccc1c23", "note": "(centres unmarked) [Example 7, 7-amino-1-(4-chlorophenyl)-8,9-dihydro-7H-pyrrolo[3,2,1-ij]quinoline]", "inhibition at 10 mg/kg": 49}
{"smiles": "c1ccc2cc(-c3cn4cccc5c4c3CCC5)ccc2c1", "note": "[Example 108, 8,9-dihydro-1-(2-naphthyl)-7H-pyrrolo[3,2,1-ij]quinoline]", "inhibition at 10 mg/kg": 71}
{"tested_on": "IgE antibody production", "assay": "Activity to inhibit the IgE antibody production in mice sensitized with egg albumin (ELISA of plasma IgE)", "type": "in vivo, male BALB/c mice", "settings": "Mus musculus, 240 h; 30 mg/kg/day, oral, once a day for seven times; blood ten days after sensitization; BALB/c mice; read-out: Percentage of the IgE antibody production inhibited", "method": "as §1, §2, §3", "units": {"inhibition at 30 mg/kg": "%"}}
{"smiles": "CC(C)=NN=C1CCc2c(-c3ccc(Cl)cc3)cn3cccc1c23", "note": "[Example 124, 1-(4-chlorophenyl)-8,9-dihydro-7H-pyrrolo-[3,2,1-ij]quinolin-7-one isopropylidenehydrazone]", "inhibition at 30 mg/kg": 45}
{"smiles": "CON=C1CCn2c(-c3ccc(Cl)cc3)nc3cccc1c32", "note": "[Example 16, 2-(4-chlorophenyl)-4,5-dihydro-6-methoxyimino-6H-imidazo[4,5,1-ij]quinoline]", "inhibition at 30 mg/kg": 54}
{"smiles": "ON=C1CCn2c(-c3ccc4ccccc4c3)nc3cccc1c32", "note": "[Reference Example 36, 2-(2-naphthyl)-4,5-dihydro-6H-imidazo[4,5,1-ij]quinolin-6-one oxime]", "inhibition at 30 mg/kg": 50}
{"smiles": "ON=C1CCn2c(-c3ccc(C(F)(F)F)cc3)nc3cccc1c32", "note": "[Reference Example 34, 2-(4-trifluoromethylphenyl)-4,5-dihydro-6H-imidazo[4,5,1-ij]quinolin-6-oneoxime]", "inhibition at 30 mg/kg": 32}
{"smiles": "NC1CCn2c(-c3ccc(C(F)(F)F)cc3)nc3cccc1c32", "note": "(centres unmarked) [Example 71, 6-amino-4,5-dihydro-2-(4-trifluoromethylphenyl)-imidazo[4,5,1-ij]quinoline]", "inhibition at 30 mg/kg": 78}
{"smiles": "NN=C1CCn2c(-c3ccc(Cl)cc3)nc3cccc1c32", "note": "[Example 15, 2-(4-chlorophenyl)-4,5-dihydro-6H-imidazo-[4,5,1-ij]quinolin-6-one hydrazone]", "inhibition at 30 mg/kg": 53}
{"smiles": "NN=C1CCc2c(-c3ccc(Cl)cc3)cn3cccc1c23", "note": "[Example 117, 1-(4-chlorophenyl)-8,9-dihydro-7H-pyrrolo-[3,2,1-ij]quinolin-7-one hydrazone]", "inhibition at 30 mg/kg": 44}
{"smiles": "NN=C1CCc2c(-c3ccc(Br)cc3)cn3cccc1c23", "note": "[Example 4, 1-(4-bromophenyl)-8,9-dihydro-7H-pyrrolo[3,2,1-ij]quinolin-7-one hydrazone]", "inhibition at 30 mg/kg": 47}
{"smiles": "O=C1CCc2c(-c3ccc(C(F)(F)F)cc3)cn3cccc1c23", "note": "[Example 81, 8,9-dihydro-1-(4-trifluoromethylphenyl)-7H-pyrrolo[3,2,1-ij]quinolin-7-one]", "inhibition at 30 mg/kg": 61}
{"smiles": "NC1CCc2c(-c3ccc(C(F)(F)F)cc3)cn3cccc1c23", "note": "(centres unmarked) [Example 132, 7-amino-8,9-dihydro-1-(4-trifluoromethylphenyl)-7H-pyrrolo[3,2,1-ij]quinoline]", "inhibition at 30 mg/kg": 80}
{"smiles": "ON=C1CCn2c(-c3ccccc3)nc3cccc1c32", "note": "[Reference Example 30, 2-phenyl-4,5-dihydro-6H-imidazo-[4,5,1-ij]quinolin-6-one oxime]", "inhibition at 30 mg/kg": 32}
{"smiles": "ON=C1CCc2c(-c3ccc(C(F)(F)F)cc3)cn3cccc1c23", "note": "[Example 92, 8,9-dihydro-1-(4-trifluoromethylphenyl)-7H-pyrrolo[3,2,1-ij]quinolin-7-oneoxi]", "inhibition at 30 mg/kg": 50}
{"smiles": "FC(F)(F)c1ccc(-c2cn3cccc4c3c2CCC4)cc1", "note": "[Example 130, 8,9-dihydro-1-(4-trifluoromethylphenyl)-7H-pyrrolo[3,2,1-ij]quinoline]", "inhibition at 30 mg/kg": 86}
{"smiles": "ON=C1CCn2c(-c3ccc(Br)cc3)nc3cccc1c32", "note": "[Reference Example 33, 2-(4-bromophenyl)-4,5-dihydro-6H-imidazo[4,5,1-ij]quinolin-6-one oxime]", "inhibition at 30 mg/kg": 41}
{"tested_on": "sensitized rat peritoneal cells (histamine release)", "assay": "Activity to suppress the histamine release from passively sensitized rat peritoneal cells", "type": "cell-based, male Wistar rats", "settings": "10 min, 1 μg/ml, 2×10^4 sensitized peritoneal cells, egg albumin, ten minutes, read-out: Percentage of the histamine release suppressed", "method": "(§4) Peritoneal cells were collected from male Wistar rats (9 week-old) killed by exsanguination. The cells were washed by centrifugation, and passively sensitized with rat anti-egg albumin serum. 2×10^4 of the sensitized peritoneal cells (1×10^4 of the sensitized peritoneal cells in the case of the compound of Example 12) were reacted with the solution of the test compound (in 0.1% bovine serum albumin solution in HBSS (Hanks' balanced salt solution) containing 0.1% DMSO). Egg albumin was added as allergen, the reaction was allowed to take place for ten minutes. After the cease of the reaction, the amount of the histamine released was determined by post-column fluorometric assay using high-speed liquid chromatography.\n(§5) The amount of the test compounds administered and the percentage of the histamine release suppressed calculated by equation 2 are shown in Table 2.\n(§6) Example 123: 1-(4-chlorophenyl)-8,9-dihydro-7H-pyrrolo-[3,2,1-ij]quinolin-7-one tosylhydrazone. [formula]", "units": {"inhibition at 1 µg/mL": "%"}}
{"smiles": "NN=C1CCn2c(-c3ccc(Cl)cc3)nc3cccc1c32", "note": "[Example 15, 2-(4-chlorophenyl)-4,5-dihydro-6H-imidazo-[4,5,1-ij]quinolin-6-one hydrazone]", "inhibition at 1 µg/mL": 42}
{"tested_on": "sensitized rat peritoneal cells (histamine release)", "assay": "Activity to suppress the histamine release from passively sensitized rat peritoneal cells", "type": "cell-based, male Wistar rats", "settings": "10 min, 3 μg/ml, 2×10^4 sensitized peritoneal cells, egg albumin, ten minutes, read-out: Percentage of the histamine release suppressed", "method": "as §4, §5, §6", "units": {"inhibition at 3 µg/mL": "%"}}
{"smiles": "Cc1ccc(S(=O)(=O)NN=C2CCc3c(-c4ccc(Cl)cc4)cn4cccc2c34)cc1", "note": "[Example 123, 1-(4-chlorophenyl)-8,9-dihydro-7H-pyrrolo-[3,2,1-ij]quinolin-7-one tosylhydrazone]", "inhibition at 3 µg/mL": 33}
{"smiles": "Clc1ccc(-c2nc3cccc4c3n2CCC4=NNc2ccccc2)cc1", "note": "[Example 17, 2-(4-chlorophenyl)-4,5-dihydro-6H-imidazo-[4,5,1-ij]quinolin-6-one phenylhydrazone]", "inhibition at 3 µg/mL": 40}
{"smiles": "Clc1ccc(-c2cn3cccc4c3c2CCC4=NNc2ccccc2)cc1", "note": "[Example 119, 1-(4-chlorophenyl)-8,9-dihydro-7H-pyrrolo-[3,2,1-ij]quinolin-7-one phenylhydrazone]", "inhibition at 3 µg/mL": 42}
{"smiles": "CC(C)=NN=C1CCn2c(-c3ccc(Cl)cc3)nc3cccc1c32", "note": "[Example 14, 2-(4-chlorophenyl)-4,5-dihydro-6H-imidazo-[4,5,1-ij]quinolin-6-one isopropylidenehydrazone]", "inhibition at 3 µg/mL": 55}
{"tested_on": "sensitized rat peritoneal cells (histamine release)", "assay": "Activity to suppress the histamine release from passively sensitized rat peritoneal cells", "type": "cell-based, male Wistar rats", "settings": "10 min, 10 μg/ml, 1×10^4 sensitized peritoneal cells (Example 12), egg albumin, ten minutes, read-out: Percentage of the histamine release suppressed", "method": "as §4, §5, §6", "units": {"inhibition at 10 µg/mL": "%"}}
{"smiles": "OC1CCn2c(-c3ccc(Cl)cc3)nc3cccc1c32", "note": "(centres unmarked) [Example 12, 2-(4-chlorophenyl)-4,5-dihydro-6-hydroxy-6H-imidazo[4,5,1-ij]quinoline]", "inhibition at 10 µg/mL": 49}
{"tested_on": "sensitized rat peritoneal cells (histamine release)", "assay": "Activity to suppress the histamine release from passively sensitized rat peritoneal cells", "type": "cell-based, male Wistar rats", "settings": "10 min, 10 μg/ml, 2×10^4 sensitized peritoneal cells, egg albumin, ten minutes, read-out: Percentage of the histamine release suppressed", "method": "as §4, §5, §6", "units": {"inhibition at 10 µg/mL": "%"}}
{"smiles": "CCOC(=O)C(=O)NC1CCc2c(-c3ccc(Cl)cc3)cn3cccc1c23", "note": "(centres unmarked) [Example 122, 1-(4-chlorophenyl)-8,9-dihydro-7-ethoxyoxalylamino-7H-pyrrolo[3,2,1-ij]quinoline]", "inhibition at 10 µg/mL": 98}
{"smiles": "NN=C1CCc2c(-c3ccc(Cl)cc3)cn3cccc1c23", "note": "[Example 117, 1-(4-chlorophenyl)-8,9-dihydro-7H-pyrrolo-[3,2,1-ij]quinolin-7-one hydrazone]", "inhibition at 10 µg/mL": 47}
{"smiles": "NN=C1CCc2c(-c3ccc(Br)cc3)cn3cccc1c23", "note": "[Example 4, 1-(4-bromophenyl)-8,9-dihydro-7H-pyrrolo[3,2,1-ij]quinolin-7-one hydrazone]", "inhibition at 10 µg/mL": 50}
{"tested_on": "mice", "assay": "Acute toxicity, oral", "type": "in vivo", "settings": "1000 mg/kg oral, three mice per group, observed for 7 days", "method": "To groups of three mice each having a body weight of 20 to 30 g were orally administered 1000 mg/kg of the compounds of Examples 15 and 117 of the present invention."}
{"smiles": "NN=C1CCn2c(-c3ccc(Cl)cc3)nc3cccc1c32", "note": "[Example 15, 2-(4-chlorophenyl)-4,5-dihydro-6H-imidazo-[4,5,1-ij]quinolin-6-one hydrazone]", "death within 7 days (acute toxicity)": "no mouse was found dead"}
{"smiles": "NN=C1CCc2c(-c3ccc(Cl)cc3)cn3cccc1c23", "note": "[Example 117, 1-(4-chlorophenyl)-8,9-dihydro-7H-pyrrolo-[3,2,1-ij]quinolin-7-one hydrazone]", "death within 7 days (acute toxicity)": "no mouse was found dead"}
